Measurements published in patent US20240368120A1 (Terns Pharmaceuticals, Inc., priority 2023, published 2024).

Experiments:
[1] = Rat pharmacokinetics, oral dosing; format: in vivo, Sprague-Dawley rats; conditions: male, Sprague-Dawley, oral dosing at 3 mg/kg, plasma; for half-life: read-out: Rat T1/2
Experimental: Intravenous dosing: Compounds were formulated at 1.0 mg/mL in a solution comprising 5% polyethylene glycol 400 and 95% (12% (w/v) sulfobutyl-β-cyclodextrin in water) (v/v). Formulated compounds were sterile filtered through a 0.22 micron filter before dosing. Compounds were administered to male, 7-11-week-old Sprague-Dawley rats by jugular vein cannula infusion over 30 minutes at a dose of 1 mg/kg. Oral dosing: Compounds were formulated at 1.0 mg/mL in a solution comprising 5% polyethylene glycol 400 and 95% (12% (w/v) sulfobutyl-β-cyclodextrin in water) (v/v). Formulated compounds were administered to male, 7-11 week old Sprague-Dawley rats by oral gavage at a dose of 10 mg/kg or 3 mg/kg.
Sample collection: Blood collections of about 0.2 mL per time point were performed from jugular vein or other suitable site of each animal, into pre-chilled commercial EDTA-K2 tubes and placed on wet ice until centrifugation. Blood samples were processed for plasma by centrifugation at approximately 4° C., 3,200 g for 10 min. Plasma was collected and transferred into pre-labeled 96 well plate or polypropylene tubes, quick frozen over dry ice and kept at −60° C. or lower until
Data analysis: Plasma concentration versus time data was plotted in graph and analyzed by non-compartmental approaches using the Phoenix WinNonlin 6.3 software program. Related PK parameters were calculated according to dosing route, e.g., CL, Vdss and C0 for intravenous administration, Cmax, Tmax or % F for extravascular administration, and T1/2, AUC(0-t), AUC(0-inf), MRT(0-t), MRT(0-inf) for all routes.

human GLP-1R receptor = target: T1, human GLP-1R receptor (Homo sapiens, UniProt P43220); experiment: GLP-1R low expression cell assay (cAMP TR-FRET, CHO-K1_hGLP-1Rlow_clone10 cells); format: cell-based; conditions: for EC50: cAMP TR-FRET, 30 min at 25° C.; for Emax: maximum activation relative to control GLP-1 peptide agonist
T1 construct: expressed in transfected cells
Method in brief: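 Readout is cAMP TR-FRET after 30 min compound stimulation at 25 °C of a low-GLP-1R-expressing CHO-K1 clone (1,000 cells/well), with 10-point 3-fold serial dilutions. Percent activation versus a control GLP-1 peptide, from duplicates, was Hill-fitted to give EC50.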

T1 sequence (P43220 24-463): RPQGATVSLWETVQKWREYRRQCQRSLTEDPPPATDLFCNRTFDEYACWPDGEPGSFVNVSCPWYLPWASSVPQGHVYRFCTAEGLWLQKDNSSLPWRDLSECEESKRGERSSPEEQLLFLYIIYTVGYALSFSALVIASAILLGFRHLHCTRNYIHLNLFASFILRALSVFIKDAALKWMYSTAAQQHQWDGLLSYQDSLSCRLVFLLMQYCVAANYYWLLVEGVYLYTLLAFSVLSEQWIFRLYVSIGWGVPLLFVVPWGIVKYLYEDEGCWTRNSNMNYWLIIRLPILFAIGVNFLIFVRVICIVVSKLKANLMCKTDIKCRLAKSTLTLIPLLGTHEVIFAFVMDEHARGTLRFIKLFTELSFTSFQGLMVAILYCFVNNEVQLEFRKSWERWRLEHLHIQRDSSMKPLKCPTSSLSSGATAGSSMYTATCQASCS

Row | AUC [1] | Cmax [1] | half-life [1] | bioavailability [1] | EC50 (human GLP-1R receptor) | Emax (human GLP-1R receptor) | SMILES
1 | 2500 to 10000 ng·h/mL | 2000 to 5000 ng/mL | ≥ 2.5 h | > 85% | < 10 nM | > 85% | Cn1c(CN2CCC(c3cccc4c3O[C@@](C)(c3ccc(Cl)cn3)O4)CC2)nc2c(OC(F)F)cc(C(=O)O)cc21 [Compound 83, (S)-2-((4-(2-(5-Chloropyridin-2-yl)-2-methylbenzo[d][1,3]dioxol-4-yl)piperidin-1-yl)methyl)-4-(difluoromethoxy)-1-methyl-1H-benzo[d]imidazole-6-carboxylic acid]
2 | < 500 ng·h/mL | < 500 ng/mL | 1.5 to 2.5 h | 25 to 50% | < 10 nM | > 85% | COc1cc(C(=O)O)cc2c1nc(CN1CC[C@@H](c3cccc4c3O[C@@](C)(c3ccc(Cl)cn3)O4)[C@@H]3C[C@@H]31)n2C[C@@H]1CCO1 [Compound 89, 2-(((1S,5R,6S)-5-((S)-2-(5-Chloropyridin-2-yl)-2-methylbenzo[d][1,3]dioxol-4-yl)-2-azabicyclo[4.1.0]heptan-2-yl)methyl)-4-methoxy-1-(((S)-oxetan-2-yl)methyl)-1H-benzo[d]imidazole-6-carboxylic acid]
3 | < 500 ng·h/mL | < 500 ng/mL | < 1.5 h | < 25% | < 10 nM | > 85% | C[C@]1(c2ccc(Cl)cn2)Oc2cccc(C3CCN(Cc4nc5c(OC6COC6)cc(C(=O)O)cc5n4C[C@@H]4CCO4)CC3)c2O1 [Compound 72, 2-((4-((S)-2-(5-Chloropyridin-2-yl)-2-methylbenzo[d][1,3]dioxol-4-yl)piperidin-1-yl)methyl)-1-(((S)-oxetan-2-yl)methyl)-4-(oxetan-3-yloxy)-1H-benzo[d]imidazole-6-carboxylic acid]
4 |  | 2000 to 5000 ng/mL | 1.5 to 2.5 h | 25 to 50% | < 10 nM | > 85% | COc1cc(C(=O)O)cc2c1nc(CN1CCC(c3cccc(OCc4ccc(Cl)c5c4OCC5)n3)CC1)n2C [Compound 297, 2-((4-(6-((4-Chloro-2,3-dihydrobenzofuran-7-yl)methoxy)pyridin-2-yl)piperidin-1-yl)methyl)-4-methoxy-1-methyl-1H-benzo[d]imidazole-6-carboxylic acid]
5 | < 500 ng·h/mL | < 500 ng/mL | ≥ 2.5 h | < 25% | < 10 nM | > 85% | C[C@]1(c2ccc(Cl)cn2)Oc2cccc(C3CCN(Cc4nc5c(OCCF)cc(C(=O)O)cc5n4C[C@@H]4CCO4)CC3)c2O1 [Compound 81, 2-((4-((S)-2-(5-Chloropyridin-2-yl)-2-methylbenzo[d][1,3]dioxol-4-yl)piperidin-1-yl)methyl)-4-(2-fluoroethoxy)-1-(((S)-oxetan-2-yl)methyl)-1H-benzo[d]imidazole-6-carboxylic acid]
6 | < 500 ng·h/mL | < 500 ng/mL | ≥ 2.5 h | < 25% | < 10 nM | > 85% | COc1cc(C(=O)O)cc2c1nc(N(C)[C@H]1CC[C@H](c3cccc4c3O[C@@](C)(c3ccc(Cl)cn3)O4)CC1)n2C[C@@H]1CCO1 [Compound 80, 2-(((1S,4S)-4-((S)-2-(5-Chloropyridin-2-yl)-2-methylbenzo[d][1,3]dioxol-4-yl)cyclohexyl)(methyl)amino)-4-methoxy-1-(((S)-oxetan-2-yl)methyl)-1H-benzo[d]imidazole-6-carboxylic acid]

The next lines start with the compound.

Row | SMILES | AUC [1] | Cmax [1] | half-life [1] | bioavailability [1] | EC50 (human GLP-1R receptor) | Emax (human GLP-1R receptor)
7 | Cn1c(CN2CCC(c3cccc(OCc4ccc(Cl)cc4F)n3)CC2)nc2c(OC(F)F)cc(C(=O)O)cc21 [Compound 136, 2-((4-(6-((4-Chloro-2-fluorobenzyl)oxy)pyridin-2-yl)piperidin-1-yl)methyl)-4-(difluoromethoxy)-1-methyl-1H-benzo[d]imidazole-6-carboxylic acid] |  | > 5000 ng/mL | ≥ 2.5 h | > 85% | < 10 nM | > 85%
8 | Cn1c(CN2CCC(c3ccc(F)c(OCc4ccc(Cl)cc4F)c3)CC2)nc2c(OC(F)F)cc(C(=O)O)cc21 [Compound 216, 2-((4-(3-((4-Chloro-2-fluorobenzyl)oxy)-4-fluorophenyl)piperidin-1-yl)methyl)-4-(difluoromethoxy)-1-methyl-1H-benzo[d]imidazole-6-carboxylic acid] |  | > 5000 ng/mL | 1.5 to 2.5 h | 50 to 85% | 10 to 100 nM | > 85%
9 | COc1cc(C(=O)O)cc2c1nc(CN1CCC(c3cccc(OCc4ccc(Cl)cc4F)n3)CC1)n2C [Compound 249, 2-((4-(6-((4-Chloro-2-fluorobenzyl)oxy)pyridin-2-yl)piperidin-1-yl)methyl)-4-methoxy-1-methyl-1H-benzo[d]imidazole-6-carboxylic acid] |  | > 5000 ng/mL | 1.5 to 2.5 h | > 85% | < 10 nM | > 85%
10 | [2H]C([2H])(C)Oc1cc(C(=O)O)cc2c1nc(CN1CCC(c3cccc(OCc4ccc(Cl)cc4F)n3)CC1)n2C [Compound 296, 2-((4-(6-((4-Chloro-2-fluorobenzyl)oxy)pyridin-2-yl)piperidin-1-yl)methyl)-4-(ethoxy-1,1-d2)-1-methyl-1H-benzo[d]imidazole-6-carboxylic acid] | 2500 to 10000 ng·h/mL | 2000 to 5000 ng/mL | 1.5 to 2.5 h | 25 to 50% | < 10 nM | > 85%
11 | COc1c(F)c(C(=O)O)cc2c1nc(CN1CCC(c3cccc(OCc4ccc(C#N)cc4F)n3)CC1)n2C [Compound 301, 2-((4-(6-((4-Cyano-2-fluorobenzyl)oxy)pyridin-2-yl)piperidin-1-yl)methyl)-5-fluoro-4-methoxy-1-methyl-1H-benzo[d]imidazole-6-carboxylic acid] | 500 to 2500 ng·h/mL | 500 to 1000 ng/mL | 1.5 to 2.5 h | 50 to 85% | 10 to 100 nM | > 85%
12 | COc1cc(C#N)ccc1COc1cccc(C2CCN(Cc3nc4c(OC(F)F)cc(C(=O)O)cc4n3C)CC2)n1 [Compound 156, 2-((4-(6-((4-Cyano-2-methoxybenzyl)oxy)pyridin-2-yl)piperidin-1-yl)methyl)-4-(difluoromethoxy)-1-methyl-1H-benzo[d]imidazole-6-carboxylic acid] | 2500 to 10000 ng·h/mL | 2000 to 5000 ng/mL | < 1.5 h | 50 to 85% | < 10 nM | > 85%
13 | Cn1c(CN2CCC(c3cccc(OCc4ccc(Cl)cc4F)n3)CC2)nc2c(OCF)cc(C(=O)O)cc21 [Compound 225, 2-((4-(6-((4-Chloro-2-fluorobenzyl)oxy)pyridin-2-yl)piperidin-1-yl)methyl)-4-(fluoromethoxy)-1-methyl-1H-benzo[d]imidazole-6-carboxylic acid] |  | 2000 to 5000 ng/mL | ≥ 2.5 h | > 85% | < 10 nM | > 85%
14 | Cn1c(N(C)[C@H]2CC[C@H](c3cccc(OCc4ccc(C#N)cc4F)n3)CC2)nc2c(OC(F)F)cc(C(=O)O)cc21 [Compound 133, 2-(((1r,4r)-4-(6-((4-Cyano-2-fluorobenzyl)oxy)pyridin-2-yl)cyclohexyl)(methyl)amino)-4-(difluoromethoxy)-1-methyl-1H-benzo[d]imidazole-6-carboxylic acid] | 500 to 2500 ng·h/mL | 500 to 1000 ng/mL | 1.5 to 2.5 h | 25 to 50% | < 10 nM | > 85%
15 | COc1cc(C(=O)O)cc2c1nc(CN1CCC(c3cccc(OCc4ccc(C(F)F)cc4F)n3)CC1)n2C [Compound 305, 2-((4-(6-((4-(Difluoromethyl)-2-fluorobenzyl)oxy)pyridin-2-yl)piperidin-1-yl)methyl)-4-methoxy-1-methyl-1H-benzo[d]imidazole-6-carboxylic acid] | 2500 to 10000 ng·h/mL | 2000 to 5000 ng/mL | 1.5 to 2.5 h | 50 to 85% | 10 to 100 nM | > 85%
16 | Cn1c(CN2CCC(c3cccc(OCc4ccc(C#N)cc4F)n3)CC2)nc2c(OC(F)F)cc(C(=O)O)cc21 [Compound 127, 2-((4-(6-((4-Cyano-2-fluorobenzyl)oxy)pyridin-2-yl)piperidin-1-yl)methyl)-4-(difluoromethoxy)-1-methyl-1H-benzo[d]imidazole-6-carboxylic acid] | 2500 to 10000 ng·h/mL | 2000 to 5000 ng/mL | < 1.5 h | 50 to 85% | < 10 nM | > 85%
